According to US20140336463A1, “Rhinotopic therapy for the treatment of chronic rhinosinusitis biofilm disruption, treatment of mucosal granulation and sinus polyps” (priority 2009, published 2014):

Assays:
[1] = test system: patients with refractory CRS; test: Part I prospective study, Rhinotopic therapy spray: Lund-Kennedy scores, clinical course, side effects; type: in vivo
Text: The first part is a prospective study that includes 20 patients with refractory CRS, treated in with Rhinotopic therapy spray at a tertiary rhinology fellowship-training program. The patients were placed on the rhinotopic protocol only after they failed extended standard medical therapy. The latter is defined, for the purpose of this study, as three or more repeated courses of different oral antibiotics along with nasal corticosteroids sprays and nasal saline rinses (each lasting at least 3 weeks), within a 6 month-period, along with oral corticosteroids when indicated (in case of significant polyposis or Samter's triad). Patients who failed extended medical therapy were given the option of revision sinus surgery or rhinotopic therapy; all 20 patients chose rhinotopic therapy and were consented accordingly. […]
CT scans were reviewed prior to treatment and evaluated following the Lund-Mackay radiologic scoring system (9). Clinical response to treatment was monitored using the Lund-Kennedy (LK) symptoms score and the LK endoscopic appearance score (9). […] The LK symptoms score evaluated nasal congestion and obstruction, headache, facial pain, alteration I the sense of smell, nasal discharge, and sneezing. The LK endoscopic appearance score evaluated the presence or absence of nasal polyps, edema, discharge, scarring, and crusting on each side of the nasal cavity. […]

[2] = prolonged intravenous use; cited from earlier work

SMILES	patients who developed an allergic reaction (skin rash over the upper lip) ([1]; nebulized, stopped the treatment and dropped out)	side effects [2]	clinical response ([1]; intravenous, one patient, before the rhinotopic protocol)
CN[C@H](CC(C)C)C(=O)N[C@H]1C(=O)N[C@@H](CC(N)=O)C(=O)N[C@H]2C(=O)N[C@H]3C(=O)N[C@H](C(=O)N[C@H](C(=O)O)c4cc(O)cc(O)c4-c4cc3ccc4O)[C@H](O)c3ccc(c(Cl)c3)Oc3cc2cc(c3O[C@@H]2O[C@H](CO)[C@@H](O)[C@H](O)[C@H]2O[C@H]2C[C@](C)(N)[C@H](O)[C@H](C)O2)Oc2ccc(cc2Cl)[C@H]1O [Vancomycin]	One	toxicity to the kidneys and the inner ear	
CC(C)(O/N=C(\C(=O)N[C@@H]1C(=O)N2C(C(=O)[O-])=C(C[n+]3ccccc3)CS[C@H]12)c1csc(N)n1)C(=O)O [ceftazidine]			improved transiently but their symptoms recurred
